According to patent US20260327260A1, “PHOSPHONOALANINE OLIGOPEPTIDES AND METHODS OF MAKING AND USE THEREOF” (priority 2023, published 2026):

Tests used:
PnaA with PnaD = experiment: PnaD-PnaA coupled forward reaction, 31P NMR (PEP to PnAla); type: biochemical, Streptomyces sp. NRRL S-515; settings: role: product, PEP 1.5 mM, 2 hours
Description: Biochemical assays of His6-SUMO-PnaA with His6-PnaD. Typical reaction mixtures (300 μL) contained 20 μM His6-PnaD, 20 μM His6-SUMO-PnaA, 1.5 mM PEP, 3 mM L-Asp, 100 μM pyridoxal 5′-phosphate (PLP), and 2 mM MgCl2 in 50 mM HEPES, 150 mM NaCl, pH 7.5. Reactions were incubated at 30° C. for 2 hours, heat inactivated at 65° C. for 10 minutes, and then analyzed by ^31P NMR and LC-MS as described above.
Reactions in timecourse experiments ([…]) contained 10 μM His6-PnaD, 10 μM His6-SUMO-PnaA, 1.5 mM PEP, 10 mM L-Asp, 100 μM pyridoxal 5′-phosphate (PLP), and 2 mM MgCl2 in 50 mM HEPES, 150 mM NaCl, pH 7.5. Samples were where heat inactivated 1, 5, 10, 30, 60, 120, and 240 min after initiation and then analyzed by ^31P NMR as described above.
Reactions examining the effect of amino donor concentrations were the same as above, except they contained 1.5, 3, 5, or 10 mM of (L-Asp). Samples were heat inactivated after 120 min and then analyzed by ^31P NMR as described above.

[1] = system: metabotropic glutamate receptors; settings: cerebral tissues; cited from earlier work
[2] = system: phosphoserine phosphatases; settings: role: inhibitor; cited from earlier work
PnaC = PnaC dipeptide ligation reactions (LC-HRMS); type: biochemical, Streptomyces sp. NRRL S-515; settings: role: substrate
Description: (§1) These hypotheses were tested by overproducing and purifying recombinant PnaB and PnaC from E. coli for use in a series of biochemical assays. PnAla, Ala, and ATP were incubated with PnaB or PnaC and the reactions were monitored by ^31P NMR and LC-HRMS. […] To determine if either enzyme could convert Ala-Val into phosphonoalamide A, protein was removed from the PnaC reaction by ultrafiltration and Ala, ATP, and fresh PnaC or PnaB was added to the filtrate. LC-HRMS identified PnAla-Ala-Val as a product following the addition of PnaB, but not PnaC (FIG. 25A-FIG. 25C).
The ATP-Grasp ligases PnaC and PnaB underlie diversification of L-PnAla-containing oligopeptides. To understand the biochemical nature of this potential phosphonopeptide diversity, the substrate specificity of the dipeptide ligase PnaC was first delineated. Microscale biochemical reactions containing purified PnaC were performed with every combination of the 20 canonical amino acids and L-allo-threonine (231 total pairs of substrates). Reactions were analyzed by LC-HRMS to reveal putative dipeptides from 146 out of the 231 combinations. To distinguish residues in reactions containing isomeric pairs (e.g., Ile and Leu, Thr and allo-Thr) new reactions were prepared using ^15N-Ile and 4-^13C-2,3-D2-Thr as substrates. LC-HRMS/MS fragmentation analysis was then performed to verify all products and determine structures.
Biochemical assays of His6-PnaC. Typical reaction mixtures ([…]) contained 10 μM His6-PnaC, […], 3 mM of each L-amino acid, and 5 mM ATP in 50 mM Tris-HCl, 100 mM NaCl, 2 mM MgCl2 pH 9. Reactions were incubated at 30° C. for 16 hours, heat inactivated at 65° C. for 10 minutes, and then analyzed by LC-MS as described above.
Analysis of PnaC and PnaB substrate specificity reactions. An extracted ion chromatogram (EIC) was obtained for each potential product m z. The shape and retention time of each EIC were used to evaluate the quality and plausibility of true signals, and samples with low-confidence EICs were re-analyzed individually, to address the challenges of ion suppression (FIG. 31A-FIG. 31C) and background noise (FIG. 32A-FIG. 32D).

PnaB = PnaB ligation reactions (31P NMR, LC-HRMS); type: biochemical, Streptomyces sp. NRRL S-515; settings: role: substrate
Description: as §1
Biochemical assays of His6-PnaB. Typical reaction mixtures ([…]) contained 10 μM His6-PnaB, 3 mM ATP, 1 mM L-PnAla, 3 mM chemically synthesized L-Ala-L-Val, L-Val-L-Val, L-Ala-L-Ile, or L-Thr-L-Val in 50 mM Tris-HCl, 100 mM NaCl, 2 mM MgCl2 pH 9. Reactions were incubated at 30° C. for 2 hours, heat inactivated at 65° C. for 10 minutes, and then analyzed by NMR and LC-MS as described above.

PnaA [3] = experiment: PnaA kinetics: conversion of L-PnAla and OAA to PnPy and L-Asp, coupled to PnPy reductase VlpB/NADH oxidation; type: biochemical, Streptomyces sp. NRRL S-515; settings: second substrate OAA 5 mM
Description: (§2) Next, kinetic analyses were performed to derive insight on the substrate specificity and reaction selectivity of PnaA transamination. Apparent steady state parameters were calculated in spectrophotometric assays by coupling the formation of OAA, PnPy, and 2KG with NADH oxidation in the presence of malate dehydrogenase (MDH), PnPy reductase (VlpB), and 3-phosphoglycerate dehydrogenase (SerA), respectively (FIG. 18A-FIG. 24B). […] The micromolar Km value observed for PnaA with PnPy is similar to that of other PepM coupling enzymes such as PnPy decarboxylase [B27, B30].
(§3) Kinetic analyses. All reactions (400 μL) were performed in 50 mM HEPES, 150 mM NaCl, pH 7.5, 30° C. using an Agilent Cary 300 spectrophotometer. The instrument was first blanked using the reaction containing the enzymes and the fixed substrate (without NADH). Initial rates were calculated from continual changes in absorbance (340 nm) before and after substrate addition. Data were analyzed using SigmaPlot 15.
Conversion of L-PnAla and OAA to PnPy and L-Asp by His6-SUMO-PnaA. Each reaction contained 1 μM PnaA, 5 μM VlpB, 200 uM NADH, 5 mM OAA, the 340 nm absorbance change was recorded for 1 min to measure the background assumption of OAA by VlpB. Then the reactions were initiated by the addition of 0.1, 0.2, 0.35, 0.5, 0.65, 0.8, or 1 mM PnAla. PnaA was pre-incubated with PLP (1:5) on ice for 10 min prior to use.

MurA = settings: role: inhibitor; mimics phosphoenolpyruvate; cited from earlier work
[4] = system: 1-deoxy-D-xylulose 5-phosphate reductoisomerase; settings: role: inhibitor; cited from earlier work
malaria = settings: cited from earlier work
bacteria = settings: cited from earlier work
PnaA [5] = experiment: PnaA kinetics: conversion of L-Glu and OAA to 2-KG and L-Asp, coupled to SerA/NADH oxidation; type: biochemical, Streptomyces sp. NRRL S-515; settings: role: substrate (L-Glu, 0.5-15 mM); second substrate OAA 5 mM; pH 7.5, 30° C
Description: In addition to the transamination of Pn substrates, PnaA was also capable of catalyzing the reversible conversion of Glu and OAA into 2KG and Asp.
as §3
Conversion of L-Glu and OAA to 2-KG and L-Asp by His6-SUMO-PnaA. Each reaction contained 1 μM PnaA, 5 μM SerA, 200 uM NADH, 5 mM OAA, the 340 nm absorbance change was recorded for 1 min to measure the background assumption of OAA by SerA, and were initiated by the addition of 0.5, 1, 1.5, 2, 3, 4, 6, 10, or 15 mM L-Glu. PnaA was pre-incubated with PLP (1:5) on ice for 10 min prior to use.

threonine synthase = settings: role: inhibitor; cited from earlier work
PnaA [6] = experiment: PnaA kinetics: conversion of PnPy and L-Asp to L-PnAla and OAA, coupled to MDH/NADH oxidation (340 nm); type: biochemical, Streptomyces sp. NRRL S-515; settings: role: substrate (PnPy, 0.0025-0.015 mM); second substrate L-Asp 5 mM; pH 7.5, 30° C; apparent steady state
Description: as §2, §3
Conversion of PnPy and L-Asp to L-PnAla and OAA by His6-SUMO-PnaA. Each reaction contained 0.5 μM PnaA, 5 μM MDH, 200 uM NADH, 5 mM L-Asp, and were initiated by the addition of 0.0025, 0.00375, 0.005, 0.0065, 0.008, 0.01, or 0.015 mM PnPy. PnaA was pre-incubated with PLP (1:5) on ice for 10 min prior to use.

PnaA [7] = experiment: PnaA reverse transamination reaction, 31P NMR/LC-MS (PnAla to PnPy); type: biochemical, Streptomyces sp. NRRL S-515; settings: role: product, 2 hours
Description: Biochemical assays of His6-SUMO-PnaA. Typical reaction mixtures (300 μL) contained 20 μM His6-SUMO-PnaA, 1.5 mM L-PnAla, 3 mM oxaloacetate, and 100 μM pyridoxal 5′-phosphate (PLP) in 50 mM HEPES, 150 mM NaCl, pH 7.5. Reactions were incubated at 30° C. for 2 hours, heat inactivated at 65° C. for 10 minutes, and then analyzed by NMR and LC-MS as described above.
Reactions in time course experiments (150 μL) contained 10 μM His6-SUMO-PnaA, 1.5 mM L-PnAla, 10 mM oxaloacetate (OAA), and 100 μM pyridoxal 5′-phosphate (PLP) in 50 mM HEPES, 150 mM NaCl, pH7.5. Samples were where heat inactivated 1, 5, 10, 30, 60, 120, and 240 min after initiation and then analyzed by ^31P NMR as described above.
Reactions examining the effect of keto-acid acceptor concentrations were the same as above, except they contained 1.5, 3, 5, or 10 mM of (OAA). Samples were heat inactivated after 120 min and then analyzed by ^31P NMR as described above.

[8] = role: substrate (PnAla), compared with PnPy
[9] = role: substrate (PnAla, 0.1-1 mM), pH 7.5, 30° C, reverse reaction

NC(CP(=O)(O)O)C(=O)O (stereo not drawn) [PnAla, 2-amino-3-phosphonopropionic acid]
PnAla accumulation at apparent equilibrium (PnaA with PnaD; Asp varied 1.5, 3, 5 or 10 mM): ≥ 70%
yield of PnAla from the PepM-coupled forward reaction (PnaA with PnaD; L-Asp 3 mM, PLP 100 μM, 30° C): 50%
metabotropic glutamate receptor antagonism [1]: selective antagonist of metabotropic glutamate receptors
phosphoserine phosphatase inhibition [2]: inhibitor of phosphoserine phosphatases
modification of PnAla with Ala (PnaC; with Ala and ATP, up to 16 hrs): PnAla remained unmodified
conversion of PnAla with Ala-Val (PnaC; with chemically synthesized Ala-Val and ATP): PnAla remained unmodified by PnaC
conversion of PnAla into phosphonoalamide A (PnaB; L-PnAla 1 mM, with Ala-Val 3 mM and ATP 3 mM, pH 9, 30° C): complete conversion of PnAla into phosphonoalamide A by PnaB
modification of PnAla with Ala (PnaB; with Ala and ATP, up to 16 hrs): PnAla remained unmodified
higher Michaelis constant (fold, reverse reaction compared with PnPy reaction) (PnaA [3]; [8]): 100 fold
lower catalytic efficiency (fold, reverse reaction compared with PnPy reaction) (PnaA [3]; [8]): 100 fold
Km (PnaA [3]; [9]): 327 µM
kcat (PnaA [3]; [9]): 2.4 s⁻¹

C[C@@H]1O[C@@H]1P(=O)(O)O [fosfomycin]
MurA inhibition (MurA): covalently inhibit MurA

O=CN(O)CCCP(=O)(O)O [fosmidomycin]
inhibition of 1-deoxy-D-xylulose 5-phosphate reductoisomerase [4]: inhibiting 1-deoxy-D-xylulose 5-phosphate reductoisomerase
results against malaria in human trials (malaria): promising results against malaria in human trials

CC(C)[C@H](NC(=O)[C@H](C)NC(=O)[C@@H](N)CP(=O)(O)O)C(=O)O [phosphonoalamide A]
spectrum of antimicrobial activity (bacteria): differing spectrums of antimicrobial activity

N[C@@H](CCC(=O)O)C(=O)O [Glu]
Km (PnaA [5]): 7.5 mM
kcat (PnaA [5]): 0.31 s⁻¹

N[C@@H](/C=C\CP(=O)(O)O)C(=O)O [(Z)-L-2-amino-5-phosphono-3-pentenoic acid]
threonine synthase inhibition (threonine synthase): threonine synthase inhibitor

C[C@H](N)C(=O)N[C@@H](C)C(=O)N[C@@H](CP(=O)(O)O)C(=O)O [phosphonoalamide F, reference compound]
spectrum of antimicrobial activity (bacteria): differing spectrums of antimicrobial activity

O=C(O)C(=O)CP(=O)(O)O [PnPy, 3-phosphonopyruvate]
Km (PnaA [6]): 4.8 µM
kcat (PnaA [6]): 2.3 s⁻¹
yield of PnPy from the reverse reaction (PnaA [7]; L-PnAla 1.5 mM, OAA 3 mM, PLP 100 μM, 30° C): 48%
PnPy accumulation at apparent equilibrium (PnaA [7]; PnAla 1.5 mM, OAA varied 1.5, 3, 5 or 10 mM): ≥ 70%
